Results: patent US12227520B2 (priority 2019, dated 2025)
Like-named read-outs stand apart in the source and are kept apart here.

Tests used:
pLai RLuc reporter virus = assay: microbe, parasite or virus in culture; type: cell-based, HIV
Procedure, shortened: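 Read-out is Renilla luciferase after 72 h at 37 °C in MT-4 cells infected 2 h beforehand with pLai RLuc reporter virus; compounds diluted 1:3.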

[1] = Cytotoxicity assay in MT-4 cells; type: cell-based, human; conditions: human, uninfected MT-4 cells, 5 days incubation; read-out: CC50
Procedure, shortened: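 For cytotoxicity, uninfected MT-4 cells were incubated with compounds 5 days at 37 °C, with 10 μM puromycin marking base cytotoxicity. Parallel plates used HIV-1 IIIB-infected (1:250 stock dilution) or mock cells with 5 μM AZT and no-drug controls. Read-out: CellTiter-Glo chemiluminescence.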

HIV-1 (IIIB) = assay: Antiviral assay in MT-4 cells (HIV MT-4 antiviral assay); type: cell-based; conditions: Human immunodeficiency virus 1, IIIB, MT4, 120 h, HIV-1 (IIIB) in MT-4 cells, 5 days incubation; read-out: EC50
Procedure, shortened: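 Read-out is CellTiter-Glo chemiluminescence after 5-day culture at 37° C, giving protection of MT-4 cells from HIV-1 IIIB cytopathicity. Compounds tested in 1:3 dilution series in complete RPMI; controls were no drug, mock infection and 5 μM AZT.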

[2] = Human immunodeficiency virus 1, 72 h, read-out: Antiviral Serum Shift RLuc 50% HS, HS/CCM (RPMI media, 10% FBS, 50% HS, 1% P/S), 72-h incubation
[3] = Human immunodeficiency virus 1, 72 h, read-out: Antiviral Serum Shift RLuc CCM, CCM (RPMI media, 10% FBS, 1% P/S), 72-h incubation

Row | Compound | EC50 (pLai RLuc reporter virus; [2]) | EC50 (pLai RLuc reporter virus; [3]) | CC50 at 5 days [1] | EC50 (HIV-1 (IIIB)) | EC50 (pLai RLuc reporter virus; read-out: Antiviral Serum Shift RLuc 50% HS, HS/CCM (RPMI media, 10% FBS, 50% HS, 1% P/S), 72-h incubation)
1 | O=C(NCc1ccc(F)cc1F)c1cn2c(c(O)c1=O)C(=O)N1CC[C@@H](F)C[C@@H]2C1 [Example 56-4, (5R, 7R)—N-(2,4-difluorobenzyl)-5-fluoro-12-hydroxy-1,11-dioxo-1,4,5,6,7,11-hexahydro-3H-2,7-methanopyrido[1,2-a][1,4]diazonine-10-carboxamide] | 15.4 nM | 2.16 nM | 30500 nM | 8.09 nM | 
2 | O=C(NCc1c(F)cc(F)cc1F)c1cn2c(c(O)c1=O)C(=O)N1C[C@H]2CCc2cc(Cl)ccc21 [Example 48-2, (12R)-2-chloro-7-hydroxy-6,8-dioxo-N-(2,4,6-trifluorobenzyl)-6,8,13,14-tetrahydro-12H-5,12-methanobenzo[e]pyrido[1,2-a][1,4]diazonine-9-carboxamide] | 1.52 nM | 0.358 nM | 17600 nM | 2.38 nM | 
3 | C[C@@H]1CO[C@H](C)[C@H]2CN1C(=O)c1c(O)c(=O)c(C(=O)NCc3c(F)cc(F)cc3F)cn12 [Example 196, (3R,6R,7R)-12-hydroxy-3,6-dimethyl-1,11-dioxo-N-(2,4,6-trifluorobenzyl)-1,3,4,6,7,11-hexahydro-2,7-methanopyrido[1,2-d][1,4,7]oxadiazonine-10-carboxamide] | 14.3 nM | 0.469 nM | 25900 nM | 2.08 nM | 
4 | C[C@@]1(F)CCCN2C[C@@H]1n1cc(C(=O)NCc3c(F)cc(F)cc3F)c(=O)c(O)c1C2=O [Example 61-2, (6R, 7S)-6-fluoro-12-hydroxy-6-methyl-1,11-dioxo-N-(2,4,6-trifluorobenzyl)-1,4,5,6,7,11-hexahydro-3H-2,7-methanopyrido[1,2-a][1,4]diazonine-10-carboxamide] | 13.8 nM | 0.142 nM | 16900 nM | 2.51 nM | 
5 | O=C(NCc1ccc(F)cc1F)c1cn2c(c(O)c1=O)C(=O)N1CC2CCc2ccccc21 (centres unmarked) [Example 36, N-(2,4-difluorobenzyl)-7-hydroxy-6,8-dioxo-6,8,13,14-tetrahydro-12H-5,12-methanobenzo[e]pyrido[1,2-a][1,4]diazonine-9-carboxamide] | 7.16 nM | 0.917 nM | 17700 nM | 2 nM | 
6 | C[C@H]1[C@H]2CCCCN1C(=O)c1c(O)c(=O)c(C(=O)NCc3ccc(F)cc3F)cn12 [Example 9, (7R,13S)—N-(2,4-difluorobenzyl)-12-hydroxy-13-methyl-1,11-dioxo-1,4,5,6,7,11-hexahydro-3H-2,7-methanopyrido[1,2-a][1,4]diazonine-10-carboxamide] | 1.68 nM | 0.33 nM | 6610 nM | 1.8 nM | 
7 | O=C(NCc1c(F)cc(F)c(Cl)c1F)c1cn2c(c(O)c1=O)C(=O)N1CCCC[C@H]2C1 [Example 74, (7S)—N-(3-chloro-2,4,6-trifluorobenzyl)-12-hydroxy-1,11-dioxo-1,4,5,6,7,11-hexahydro-3H-2,7-methanopyrido[1,2-a][1,4]diazonine-10-carboxamide] | 13.8 nM | 0.492 nM | 7280 nM | 1.52 nM | 
8 | O=C(NCc1ccc(F)cc1F)c1cn2c(c(O)c1=O)C(=O)N1C[C@H]2CCc2cc(Cl)ccc21 [Example 49-2, (12R)-2-chloro-N-(2,4-difluorobenzyl)-7-hydroxy-6,8-dioxo-6,8,13,14-tetrahydro-12H-5,12-methanobenzo[e]pyrido[1,2-a][1,4]diazonine-9-carboxamide] | 1.11 nM | 0.202 nM | 7200 nM | 2.38 nM | 
9 | O=C(NCc1c(F)cc(F)cc1F)c1cn2c(c(O)c1=O)C(=O)N1Cc3cc(F)c(F)cc3C[C@H]2C1 [Example 88, (6S)-9,10-difluoro-1-hydroxy-2,14-dioxo-N-(2,4,6-trifluorobenzyl)-2,7,12,14-tetrahydro-6H-6,13-methanobenzo[f]pyrido[1,2-a][1,4]diazonine-3-carboxamide] | 1.62 nM | 0.269 nM | > 23400 nM | 1.61 nM | 
10 | O=C(NCc1ccc(F)cc1F)c1cn2c(c(O)c1=O)C(=O)N1CCCC(F)[C@H]2C1 (stereo partly drawn) [Example 172-2, (7R)—N-(2,4-difluorobenzyl)-6-fluoro-12-hydroxy-1,11-dioxo-1,4,5,6,7,11-hexahydro-3H-2,7-methanopyrido[1,2-a][1,4]diazonine-10-carboxamide] | 2.62 nM | 0.417 nM | 12800 nM | 1.47 nM | 
11 | C[C@@H]1N2C[C@H](CCC1(F)F)n1cc(C(=O)NCc3c(F)cc(F)cc3F)c(=O)c(O)c1C2=O [Example 154-2, (3S,7S)-4,4-difluoro-12-hydroxy-3-methyl-1,11-dioxo-N-(2,4,6-trifluorobenzyl)-1,4,5,6,7,11-hexahydro-3H-2,7-methanopyrido[1,2-a][1,4]diazonine-10-carboxamide] | 7.14 nM | 0.306 nM | 15200 nM | 1.94 nM | 
12 | O=C(NCc1ccc(F)cc1F)c1cn2c(c(O)c1=O)C(=O)N1CCC[C@H]3C[C@@]32C1 [Example 65-2, (1aS,11aS)—N-(2,4-difluorobenzyl)-7-hydroxy-6,8-dioxo-1a,2,3,4,6,8-hexahydro-1H-5,11a-methanocyclopropa[h]pyrido[1,2-a][1,4]diazonine-9-carboxamide] | 3.47 nM | 0.341 nM | 8820 nM | 1.66 nM | 
13 | O=C(NCc1ccc(F)c(Cl)c1F)c1cn2c(c(O)c1=O)C(=O)N1CCCC(F)(F)[C@H]2C1 (single isomer, unassigned) [Example 117-1] | 7.17 nM | 0.33 nM | 13300 nM | 1.93 nM | 
14 | C[C@@H]1CC[C@H](C)N2C[C@H]1n1cc(C(=O)NCc3c(F)cc(F)cc3F)c(=O)c(O)c1C2=O [Example 174, (3S,6R,7S)-12-hydroxy-3,6-dimethyl-1,11-dioxo-N-(2,4,6-trifluorobenzyl)-1,4,5,6,7,11-hexahydro-3H-2,7-methanopyrido[1,2-a][1,4]diazonine-10-carboxamide] | 58.4 nM | 0.346 nM | 11400 nM | 1.26 nM | 
15 | CC1CCCN2CC1n1cc(C(=O)NCc3ccc(F)cc3F)c(=O)c(O)c1C2=O (centres unmarked) [Example 17-1b, N-(2,4-difluorobenzyl)-12-hydroxy-6-methyl-1,11-dioxo-1,4,5,6,7,11-hexahydro-3H-2,7-methanopyrido[1,2-a][1,4]diazonine-10-carboxamide] |  | 0.26 nM | 10900 nM | 1.2 nM | 3.1 nM
16 | O=C(NCc1ccc(F)c(Cl)c1F)c1cn2c(c(O)c1=O)C(=O)N1CC2CCc2cc(F)c(F)cc21 (centres unmarked) [Example 69, N-(3-chloro-2,4-difluorobenzyl)-2,3-difluoro-7-hydroxy-6,8-dioxo-6,8,13,14-tetrahydro-12H-5,12-methanobenzo[e]pyrido[1,2-a][1,4]diazonine-9-carboxamide] | 1.06 nM | 0.199 nM | 36700 nM | 1.95 nM | 
17 | CC[C@]1(O)CCCN2C[C@H]1n1cc(C(=O)NCc3ccc(F)cc3F)c(=O)c(O)c1C2=O [Example 77, (6S,7R)—N-(2,4-difluorobenzyl)-6-ethyl-6,12-dihydroxy-1,11-dioxo-1,4,5,6,7,11-hexahydro-3H-2,7-methanopyrido[1,2-a][1,4]diazonine-10-carboxamide] | 2.13 nM | 0.762 nM | 15100 nM | 2.17 nM | 
18 | C[C@]1(F)CCCN2C[C@@H]1n1cc(C(=O)NCc3c(F)cc(F)cc3F)c(=O)c(O)c1C2=O [Example 61-1, (6S, 7S)-6-fluoro-12-hydroxy-6-methyl-1,11-dioxo-N-(2,4,6-trifluorobenzyl)-1,4,5,6,7,11-hexahydro-3H-2,7-methanopyrido[1,2-a][1,4]diazonine-10-carboxamide] | 72 nM | 0.206 nM | 10300 nM | 1.85 nM | 
19 | C[C@H]1C(F)=CC[C@H]2CN1C(=O)c1c(O)c(=O)c(C(=O)NCc3c(F)cc(F)cc3F)cn12 [Example 154-1, (3S,7S)-4-fluoro-12-hydroxy-3-methyl-1,11-dioxo-N-(2,4,6-trifluorobenzyl)-1,6,7,11-tetrahydro-3H-2,7-methanopyrido[1,2-a][1,4]diazonine-10-carboxamide] | 4.29 nM | 0.297 nM | 25700 nM | 1.64 nM | 
20 | C[C@H]1CC[C@H](C)N2C[C@H]1n1cc(C(=O)NCc3c(F)cc(F)cc3F)c(=O)c(O)c1C2=O [Example 186, (3S,6S,7S)-12-hydroxy-3,6-dimethyl-1,11-dioxo-N-(2,4,6-trifluorobenzyl)-1,4,5,6,7,11-hexahydro-3H-2,7-methanopyrido[1,2-a][1,4]diazonine-10-carboxamide] | 60.2 nM | 0.306 nM | 11400 nM | 0.612 nM | 
